Source: ChEMBL document CHEMBL5576093, “Design, synthesis and evaluation of bioactivity of peptidomimetics based on chloroalkene dipeptide isosteres” (Bioorg Med Chem, 2024)

Key:
[1] = target: C-X-C chemokine receptor type 4 (Homo sapiens, UniProt P61073); experiment: Antagonist activity at CXCR4 (unknown origin); format: functional
[2] = target: Amyloid-beta precursor protein (Homo sapiens) (UniProt P05067); experiment: Inhibition of amyloid-beta (1 to 42 residues) (unknown origin) aggregation at 20 uM incubated for 6 hrs by ThT fluorescence based spectrofluorimetric analysis relative to control
[3] = target: Amyloid-beta precursor protein (Homo sapiens) (UniProt P05067); experiment: Inhibition of amyloid-beta (1 to 42 residues) (unknown origin) aggregation at 10 uM incubated for 6 hrs by ThT fluorescence based spectrofluorimetric analysis relative to control

Amyloid-beta precursor protein (Homo sapiens), sequence (P05067 whole entry, the tested form may be a part): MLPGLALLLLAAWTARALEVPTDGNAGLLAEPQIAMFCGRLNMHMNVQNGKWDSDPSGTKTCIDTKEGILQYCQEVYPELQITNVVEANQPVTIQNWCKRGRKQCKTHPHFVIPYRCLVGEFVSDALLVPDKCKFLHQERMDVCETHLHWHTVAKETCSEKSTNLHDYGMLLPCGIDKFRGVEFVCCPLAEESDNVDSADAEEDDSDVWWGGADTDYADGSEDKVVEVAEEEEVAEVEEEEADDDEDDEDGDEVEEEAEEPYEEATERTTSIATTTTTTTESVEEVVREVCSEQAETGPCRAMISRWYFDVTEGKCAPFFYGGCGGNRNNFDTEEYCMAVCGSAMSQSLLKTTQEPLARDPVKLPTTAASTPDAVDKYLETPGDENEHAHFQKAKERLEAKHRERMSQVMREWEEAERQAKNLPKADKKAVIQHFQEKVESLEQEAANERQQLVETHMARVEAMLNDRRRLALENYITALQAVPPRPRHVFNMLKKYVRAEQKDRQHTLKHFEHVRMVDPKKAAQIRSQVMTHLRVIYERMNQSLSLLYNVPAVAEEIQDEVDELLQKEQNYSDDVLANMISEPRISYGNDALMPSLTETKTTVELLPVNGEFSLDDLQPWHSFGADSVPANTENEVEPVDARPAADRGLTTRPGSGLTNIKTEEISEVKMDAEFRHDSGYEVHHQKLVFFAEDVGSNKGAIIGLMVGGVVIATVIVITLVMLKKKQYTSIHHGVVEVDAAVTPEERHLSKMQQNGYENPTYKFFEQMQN
C-X-C chemokine receptor type 4, sequence (P61073 whole entry, the tested form may be a part): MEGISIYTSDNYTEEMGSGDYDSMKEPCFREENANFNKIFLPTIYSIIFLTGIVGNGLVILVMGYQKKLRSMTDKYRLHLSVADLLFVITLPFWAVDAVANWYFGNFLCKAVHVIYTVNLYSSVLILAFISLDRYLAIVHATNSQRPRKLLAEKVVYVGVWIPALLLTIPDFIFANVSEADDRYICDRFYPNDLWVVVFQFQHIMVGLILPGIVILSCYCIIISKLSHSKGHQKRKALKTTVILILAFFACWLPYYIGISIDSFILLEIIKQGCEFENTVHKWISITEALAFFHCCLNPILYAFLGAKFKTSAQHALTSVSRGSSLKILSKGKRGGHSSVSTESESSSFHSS

Row | SMILES | EC50 [1] | inhibition [2] | inhibition [3]
1 | CC(C)C[C@@H]1NC(=O)[C@@H](CCCCN)NC(=O)[C@@H](Cc2ccccc2)NC(=O)[C@H](Cc2ccccc2)NC(=O)[C@@H](C(C)C)NC1=O | – | 20.3% | 77.9%
2 | CC(C)C[C@H](NC(=O)[C@@H](N)CCCCN)C(=O)N[C@H](C(=O)/C(Cl)=C/N[C@@H](Cc1ccccc1)C(=O)N[C@@H](Cc1ccccc1)C(=O)O)C(C)C | – | 79.6% | –
3 | CC(C)C[C@H](NC(=O)[C@@H](N)CCCCN)C(=O)N[C@H](C(=O)N[C@@H](Cc1ccccc1)C(=O)N[C@@H](Cc1ccccc1)C(=O)O)C(C)C | – | 90.2% | –
4 | O=c1c(O)c(-c2ccc(O)cc2O)oc2cc(O)cc(O)c12 | – | 36% | –

Continued, values first:

Row | EC50 [1] | inhibition [2] | inhibition [3] | SMILES
5 | 1460 nM | – | – | N=C(N)NCCC[C@H]1/C=C/[C@@H](CCCNC(=N)N)C(=O)N[C@@H](Cc2ccc3ccccc3c2)C(=O)NCC(=O)N[C@H](Cc2ccc(O)cc2)C(=O)N1
6 | – | 24.6% | 30.1% | CC(C)C[C@H]1NC(=O)[C@H](CCCCN)NC(=O)[C@H](Cc2ccccc2)NC(=O)[C@@H](Cc2ccccc2)N/C=C(\Cl)C(=O)[C@H](C(C)C)NC1=O
7 | 1780 nM | – | – | N=C(N)NCCC[C@@H]1NC(=O)[C@@H](Cc2ccc(O)cc2)NC(=O)CNC(=O)[C@H](Cc2ccc3ccccc3c2)NC(=O)[C@H](CCCNC(=N)N)/C=C/1F
